Laboratory results as given in US20230158153A1, “PI3 KINASE INHIBITORS AND USES THEREOF” (Purdue Research Foundation, priority 2020, published 2023).

Key:
PI3K [1] = assay: Western blot of Akt phosphorylation in TGFβ1-stimulated HLF cells; format: cell-based, human; set-up: inhibition of Akt phosphorylation on serine 473: dose or concentration left out as unconfirmed
Procedure: (§1) Lysates were collected and analyzed for the indicated proteins by Western blotting, wherein pAkt (S473) is phosphorylated protein kinase B, Akt is protein kinase B, Col.1 is collagen 1, αSMA is α-smooth muscle actin, pSMAD2 is phosphor-SMAD2 kinase, SMAD2 is mothers against decapentaplegic homolog 2, and GAPDH is glyceraldehyde 3-phosphate dehydrogenase.
(§2) To determine whether the nontargeted version of PI3Ki1 might enter human lung fibroblasts and inhibit PI3K activity, HLF-FAP cells were incubated for 24 h with either omipalisib or PI3Ki1 and then the impact on TGFβ1 stimulation, including phosphorylation of Akt, collagen synthesis, contraction of a collagen gel, and apoptosis of myofibroblasts were examined. […] Moreover, nontargeted PI3Ki1suppressed collagen synthesis with better potency than omipalisib, displaying an IC50˜10 nM (FIG. 4C).
(§3) Serum starved confluent HLF cells were co-incubated in medium containing 10 ng/ml TGFβ1 with or without the indicated concentrations of PI3K inhibitors for 24 hours. Cells were harvested and lysed for Western blot analysis. Following sodium dodecyl sulphate polyacrylamide gel electrophoresis and blocking, membranes were incubated with antibodies to detect pSMAD2 Ser465/467 (#3101, Cell Signalling Technology), or pAkt Ser473 (#4060, Cell signalling Technology), and signals were visualized with ECL Western Blot Detection Reagents (GE Healthcare). […]

[2] = test system: TGFβ1-stimulated HLF cells; assay: Collagen synthesis (Col.1/GAPDH) in TGFβ1-stimulated HLF cells; format: cell-based; details: Homo sapiens, TGFβ1 10 ng/mL, 24 h, read-out: IC50 of suppression of collagen synthesis
Procedure: as §1, §2, §3

HLF = HLF contraction of a collagen gel; format: cell-based, human; details: 100 nM
Procedure: Data were analyzed using one-way ANOVA, followed by post-hoc Tukey test (n=3; *p<0.01).
as §2

HLF cells = assay: Caspase 3 and 7 activities in HLF cells (drug-induced apoptosis); format: cell-based
Procedure: The experiments in panels A-E have been reproduced three times, each with three independent samples, n=3).
as §2

PI3K [3] = assay: Western blot of Akt phosphorylation in TGFβ1-stimulated human IPF fibroblasts; format: cell-based; details: 3, 9, 27 or 81 min incubation
Procedure: After replacing the medium with inhibitor-free medium, the cells were cultured for an additional 22 hours, lysed with phosphatase inhibitor containing cell lysis solution, and analyzed for the indicated proteins by Western blotting (n=3).
After an additional 24-hour incubation, cells were lysed and the indicated proteins were analyzed by Western blotting (n=3).
Random/zed shRNA (shCTL) served as a control (n=2).
FIGS. 8A-8B are representative Western blots showing that FAP-targeted PI-3 Kinase inhibitor (FAPL-PI3Ki1) suppresses phosphorylation of Akt in IPF fibroblasts.
Firstly, primary lung fibroblasts from an IPF patient were stimulated for 24 h with TGFβ1 (to activate them to a FAP-expressing state) and then incubated for 2 h with increasing concentrations of FAPL-PI3Ki1, in the presence or absence of 100-fold excess FAPL to block unoccupied FAP sites.
Secondly, IPF lung fibroblasts were stimulated with TGFβ1 and then incubated for different durations with either FAPL-targeted or nontargeted PI3Ki1, followed by replacement of the culture media with inhibitor-free media (FIG. 7B and FIGS. 8A-8B). The anticipation was that FAP-targeted PI3Ki1 would be retained by FAP on FAP-expressing cells during short incubation times, whereas nontargeted PI3Ki1would not be captured by FAP and would subsequently be washed away when the media was changed. […]

IPF fibroblasts = assay: Molecular crowding assay for collagen in IPF fibroblasts; format: cell-based, human; details: 100 nM, 2 h, then inhibitor-free media with TGFβ1
Procedure: FIG. 7E and FIG. 7F show assay of collagen biosynthesis (green channel) using a molecular crowding assay (0.1% DMSO vehicle was constant for all experimental conditions). IPF fibroblasts were treated with 100 nM omipalisib, PI3Ki1 or FAPL-PI3Ki1for 2 hours, after which the media were removed and the fibroblasts were further stimulated for 48 h with media containing TGFβ1 (10 ng/mL). Cell counts were obtained from DAPI counterstaining (blue channel). Data were analyzed using one-way ANOVA, followed by post-hoc Tukey test (n=3; *p.-(0.05).
Next, the FAP-targeted PI-3 kinase inhibitors were tested to determine if they might suppress collagen formation by human IPF fibroblasts. For this purpose, TGFβ1-stimulated IPF lung fibroblasts were stimulated for 2 h with omipalisib, PI3Ki1, or FAPL-PI3Ki1, followed by replacement of the inhibitor-containing media with inhibitor-free growth media and continued incubation for 46 h. […] Importantly, this concurrent suppression of both mTOR and PI3K activity should be very beneficial to the desired therapy, since collagen synthesis associated with pathogenic fibrosis can be induced by both pathways.
Confluent IPF fibroblasts (4000 cells/well) were cultured in 96-well plates in DMEM containing 0.4% fetal calf serum, ascorbic acid (100 μM), and mixed Ficoll 70 and Ficoll 400 as molecular crowding agents. […]

For COc1ncc(-c2ccc3nccc(-c4ccc(CO)nc4)c3c2)cc1NS(=O)(=O)c1ccc(F)cc1F [PI3Ki1], the “inhibition of Akt phosphorylation on serine 473” value (PI3K [1]) was “nearly complete inhibition”, the IC50 (PI3K [1]; Homo sapiens, HLF, TGFβ1 10 ng/mL, 24 h, read-out: IC50 of inhibition of phosphorylation of Akt) was roughly 1 nM and the IC50 [2] was roughly 10 nM. The “inhibition of TGFβ1 stimulated fibroblast contraction of a collagen gel” value (HLF) was “reduce TGFβ1 induced collagen remodeling”, the caspase activity (HLF cells; concentrations below 100 nM) was “weak induction of caspase activity” and the “fibroblast apoptosis (caspase 3 and 7 activation)” value (HLF cells; increasing concentrations) was “only promoted fibroblast cell death at concentrations much higher than those required to prevent collagen synthesis”. For the same molecule, the “pAkt after short incubation and replacement with inhibitor-free media” value (PI3K [3]) was “no diminution in pAkt expression” and the biosynthesis of collagen (IPF fibroblasts) was “only moderately inhibited”.
COc1ncc(-c2ccc3nccc(-c4ccnnc4)c3c2)cc1NS(=O)(=O)c1ccc(F)cc1F [omipalisib, reference compound] was tested, and the biosynthesis of collagen (IPF fibroblasts) was “only moderately inhibited”.
